Measurements taken from PubChem BioAssay (NCI).
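Cells were grown in 96-well plates and exposed to each compound for 48 hours at five concentrations; endpoints were interpolated linearly between bracketing concentrations, or set to the highest concentration if not reached. Definition used: TGI = concentration required for complete inhibition of growth.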

What was measured:
Test in all cases: NCI tumour cell line growth inhibition, 48 h
HT29 colon = tested on: HT29 colon
TK-10 renal = tested on: TK-10 renal
DU-145 prostate = tested on: DU-145 prostate
HCC-2998 colon = tested on: HCC-2998 colon
786-0 renal = tested on: 786-0 renal
NCI-H460 lung = tested on: NCI-H460 lung
MALME-3M melanoma = tested on: MALME-3M melanoma
MDA-MB-231 breast = tested on: MDA-MB-231 breast
LOX IMVI melanoma = tested on: LOX IMVI melanoma
SK-MEL-28 melanoma = tested on: SK-MEL-28 melanoma
NCI/ADR-RES ovarian = tested on: NCI/ADR-RES ovarian
IGROV1 ovarian = tested on: IGROV1 ovarian
HOP-92 NSCLC = tested on: HOP-92 NSCLC
UO-31 renal = tested on: UO-31 renal
SN12C renal = tested on: SN12C renal
HL-60(TB) leukemia = tested on: HL-60(TB) leukemia
HCT-116 colon = tested on: HCT-116 colon
MDA-N = tested on: MDA-N
OVCAR-8 ovarian = tested on: OVCAR-8 ovarian
HOP-62 NSCLC = tested on: HOP-62 NSCLC
SF-295 CNS = tested on: SF-295 CNS
NCI-H226 lung = tested on: NCI-H226 lung
SK-OV-3 ovarian = tested on: SK-OV-3 ovarian
NCI-H522 lung = tested on: NCI-H522 lung
SW-620 colon = tested on: SW-620 colon
OVCAR-3 ovarian = tested on: OVCAR-3 ovarian
OVCAR-5 ovarian = tested on: OVCAR-5 ovarian
MDA-MB-435 = tested on: MDA-MB-435
CAKI-1 renal = tested on: CAKI-1 renal
A549 NSCLC = tested on: A549 NSCLC
HCT-15 colon = tested on: HCT-15 colon
BT-549 breast = tested on: BT-549 breast
EKVX NSCLC = tested on: EKVX NSCLC
SF-539 CNS = tested on: SF-539 CNS
PC-3 prostate = tested on: PC-3 prostate
UACC-257 melanoma = tested on: UACC-257 melanoma
MOLT-4 leukemia = tested on: MOLT-4 leukemia
SR leukemia = tested on: SR leukemia
U251 CNS = tested on: U251 CNS
ACHN renal = tested on: ACHN renal
M14 melanoma = tested on: M14 melanoma
SF-268 CNS = tested on: SF-268 CNS
SNB-75 CNS = tested on: SNB-75 CNS
SK-MEL-2 melanoma = tested on: SK-MEL-2 melanoma
OVCAR-4 ovarian = tested on: OVCAR-4 ovarian
UACC-62 melanoma = tested on: UACC-62 melanoma
NCI-H23 lung = tested on: NCI-H23 lung
RXF 393 renal = tested on: RXF 393 renal
A498 renal = tested on: A498 renal
MCF7 breast = tested on: MCF7 breast
HS 578T breast = tested on: HS 578T breast
KM12 colon = tested on: KM12 colon
T-47D breast = tested on: T-47D breast
SNB-19 CNS = tested on: SNB-19 CNS
K-562 leukemia = tested on: K-562 leukemia
SK-MEL-5 melanoma = tested on: SK-MEL-5 melanoma
CCRF-CEM leukemia = tested on: CCRF-CEM leukemia
COLO 205 colon = tested on: COLO 205 colon

FC(F)(F)c1ccc2c(c1)nc1n2C(c2c(Cl)cccc2Cl)SC1 (stereo not given)
TGI (HT29 colon): 31.9 µM | TGI (TK-10 renal): 47 µM | TGI (DU-145 prostate): 56.1 µM | TGI (HCC-2998 colon): 40.1 µM | TGI (786-0 renal): 33.4 µM | TGI (NCI-H460 lung): 35 µM | TGI (MALME-3M melanoma): 42.1 µM | TGI (MDA-MB-231 breast): 35.7 µM | TGI (LOX IMVI melanoma): > 100 µM | TGI (SK-MEL-28 melanoma): 43.3 µM | TGI (NCI/ADR-RES ovarian): 58.9 µM | TGI (IGROV1 ovarian): 47.7 µM | TGI (HOP-92 NSCLC): 37 µM | TGI (UO-31 renal): 31.8 µM | TGI (SN12C renal): 32.2 µM | TGI (HL-60(TB) leukemia): 67.5 µM | TGI (HCT-116 colon): 29.5 µM | TGI (MDA-N): 36.8 µM | TGI (OVCAR-8 ovarian): 74.7 µM | TGI (HOP-62 NSCLC): 31 µM | TGI (SF-295 CNS): 33.6 µM | TGI (NCI-H226 lung): 58.2 µM | TGI (SK-OV-3 ovarian): 85.9 µM | TGI (NCI-H522 lung): 51.9 µM | TGI (SW-620 colon): 71.3 µM | TGI (OVCAR-3 ovarian): 28.8 µM | TGI (OVCAR-5 ovarian): 32.3 µM | TGI (MDA-MB-435): 41.4 µM | TGI (CAKI-1 renal): 35 µM | TGI (A549 NSCLC): 38.6 µM | TGI (HCT-15 colon): 50.9 µM | TGI (BT-549 breast): 55.3 µM | TGI (EKVX NSCLC): 32.3 µM | TGI (SF-539 CNS): 43 µM | TGI (PC-3 prostate): 37.9 µM | TGI (UACC-257 melanoma): 42.9 µM | TGI (MOLT-4 leukemia): > 100 µM | TGI (SR leukemia): > 100 µM | TGI (U251 CNS): 38.3 µM | TGI (ACHN renal): 40.3 µM | TGI (M14 melanoma): 36.9 µM | TGI (SF-268 CNS): 47.2 µM | TGI (SNB-75 CNS): 45.1 µM | TGI (SK-MEL-2 melanoma): 40.8 µM | TGI (OVCAR-4 ovarian): 43.4 µM | TGI (UACC-62 melanoma): 34.1 µM | TGI (NCI-H23 lung): 60.1 µM | TGI (RXF 393 renal): 28.7 µM | TGI (A498 renal): 32.7 µM | TGI (MCF7 breast): 55.2 µM | TGI (HS 578T breast): 59.3 µM | TGI (KM12 colon): 27.2 µM | TGI (T-47D breast): 47.4 µM | TGI (SNB-19 CNS): 48.7 µM

CC1(C)CO[P@@](=S)(c2ccccn2)O[C@@H]1c1ccccc1
TGI (K-562 leukemia): > 100 µM | TGI (HT29 colon): > 100 µM | TGI (TK-10 renal): > 100 µM | TGI (DU-145 prostate): > 100 µM | TGI (HCC-2998 colon): > 100 µM | TGI (786-0 renal): > 100 µM | TGI (NCI-H460 lung): > 100 µM | TGI (MALME-3M melanoma): > 100 µM | TGI (SK-MEL-5 melanoma): > 100 µM | TGI (MDA-MB-231 breast): > 100 µM | TGI (LOX IMVI melanoma): > 100 µM | TGI (SK-MEL-28 melanoma): > 100 µM | TGI (NCI/ADR-RES ovarian): > 100 µM | TGI (IGROV1 ovarian): > 100 µM | TGI (HOP-92 NSCLC): > 100 µM | TGI (UO-31 renal): > 100 µM | TGI (CCRF-CEM leukemia): > 100 µM | TGI (SN12C renal): > 100 µM | TGI (HL-60(TB) leukemia): > 100 µM | TGI (HCT-116 colon): > 100 µM | TGI (MDA-N): > 100 µM | TGI (OVCAR-8 ovarian): > 100 µM | TGI (HOP-62 NSCLC): > 100 µM | TGI (SF-295 CNS): > 100 µM | TGI (NCI-H226 lung): > 100 µM | TGI (SK-OV-3 ovarian): > 100 µM | TGI (NCI-H522 lung): > 100 µM | TGI (SW-620 colon): > 100 µM | TGI (OVCAR-3 ovarian): > 100 µM | TGI (OVCAR-5 ovarian): > 100 µM | TGI (MDA-MB-435): > 100 µM | TGI (COLO 205 colon): > 100 µM | TGI (CAKI-1 renal): > 100 µM | TGI (A549 NSCLC): > 100 µM | TGI (HCT-15 colon): > 100 µM | TGI (BT-549 breast): > 100 µM | TGI (EKVX NSCLC): > 100 µM | TGI (PC-3 prostate): > 100 µM | TGI (UACC-257 melanoma): > 100 µM | TGI (MOLT-4 leukemia): > 100 µM | TGI (SR leukemia): > 100 µM | TGI (U251 CNS): > 100 µM | TGI (ACHN renal): > 100 µM | TGI (M14 melanoma): > 100 µM | TGI (SF-268 CNS): > 100 µM | TGI (SNB-75 CNS): > 100 µM | TGI (OVCAR-4 ovarian): > 100 µM | TGI (UACC-62 melanoma): > 100 µM | TGI (NCI-H23 lung): > 100 µM | TGI (RXF 393 renal): > 100 µM | TGI (A498 renal): > 100 µM | TGI (MCF7 breast): > 100 µM | TGI (HS 578T breast): > 100 µM | TGI (KM12 colon): > 100 µM | TGI (T-47D breast): > 100 µM | TGI (SNB-19 CNS): > 100 µM
